Data reported in patent publication US20120302609A1, “Pyrazolines for the Modulation of PKM2” (Dynamix Pharmaceuticals LTD., priority 2011, published 2012).

System: H-460 (lung)
Assay: Cell proliferation assay (XTT)
Type: cell-based
Settings: Homo sapiens, NCI-H460, 72 h, Assay duration: 72 hours, Readout: XTT
Protocol: Day 0 Cells were seeded at 3000 cells/well in 100 μl full media in 96-well culture plates (60 wells/plate, external wells filled with 100 μl PBS) and incubated overnight. • Day 1 On the following day, full media was changed to the tested media and compounds were added in 0.5% DMSO final. • Day 2-5 Cells were incubated over 72 hr. • Day 5 Cell proliferation was assessed using XTT proliferation assay as follows:
The assay is based on the ability of metabolic active cells to reduce the tetrazolium salt XTT to orange colored compounds of formazan. The dye formed is water soluble and the dye intensity can be read at a given wavelength with a spectrophotometer. The intensity of the dye is proportional to the number of metabolic active cells. The use of multiwell plates and an ELISA reader enables testing a large number of samples and obtaining easy and rapid results. The test procedure includes cultivation of cells in a 96-well plate, adding the XTT reagent and incubation for 2-24 hours. During incubation an orange color is formed, the intensity of which can be measured with a spectrophotometer, in this instance with an ELISA reader. The greater the number of active cells in the well, the greater the activity of mitochondria enzymes, and the higher the concentration of the dye formed, which can then be measured and quantitated.
• 1. […] The absorbance of the samples was measured against a background control as a blank (see 7) with a spectrophotometer (ELISA reader) at a wavelength of 450-500 nanometer. In order to measure reference absorbance (to measure non-specific readings), a wavelength of 630-690 nanometer was used and subtracted from the 450-500 nanometer measurement. • 7. Background control (blank): Slight spontaneous absorbance around 450-500 nanometer occurs in the culture medium incubated with the XTT reagent. This background absorbance depends on the culture medium, pH, incubation time and length of exposure to light. […] The average absorbance of the blank control wells was subtracted from that of the other wells. […]

COc1ccc([C@@H]2CC(c3ccc(NS(=O)(=O)c4ccc(F)cc4)cc3)=NN2C(C)=O)cc1 [Compound 13A, (S)—N-(4-(1-acetyl-5-(4-methoxyphenyl)-4,5-dihydro-1H-pyrazol-3-yl)phenyl)-4-fluorobenzenesulfonamide]
AC50 (1 mM glucose): 10 to 20 µM | AC50 (Complete media): > 20 µM | AC50 (Lipoprotein-free media): < 3 µM
